Assay [1] relates to Tobacco mosaic virus. Briefly: Inhibition of Tobacco mosaic virus (TMV) replication using Nicotiana tabacum cv. K326 at 0.2 mg/mL. The format is functional.
Assay [2] has as its system Tobacco mosaic virus. Briefly: Inhibition of Tobacco mosaic virus (TMV) replication using Nicotiana tabacum cv. K326. The format is functional, organism-based.

Each structure is given as a SMILES string. In brackets after ≈: the same amount, converted by molar mass.

The inhibition is the drop in the measured response relative to a control, in per cent. A lower inhibition goes with a weak effect. In general, EC50 refers to the concentration at which the effect is half-maximal. The low end stands for higher potency in that assay, the high end for lower potency in that assay. Turning to `COc1cc(/C=C/C(=O)OC[C@H]2O[C@@H](Oc3ccc([C@@H]4OC[C@@H]5[C@H]4CO[C@H]5c4ccc(O)c(OC)c4)cc3OC)[C@H](O)[C@@H](OC(=O)/C=C/c3ccc(O)c(OC)c3)[C@@H]2O)ccc1O` [PINORESINOL-4'-O-[3',6'-O-(E)-DIFERULOYL]-BETA-D-GLUCOPYRANOSIDE], in the assay on Tobacco mosaic virus [1], 200 µg/mL produced 47.7% inhibition. Besides, the EC50 with Tobacco mosaic virus [2] amounted to 240 µg/mL (≈ 275 µM).
Consider `COc1cc(/C=C/C(=O)OC[C@H]2O[C@@H](Oc3ccc([C@@H]4OC[C@@H]5[C@H]4CO[C@H]5c4ccc(O)c(OC)c4)cc3OC)[C@H](O)[C@@H](O)[C@@H]2OC(=O)/C=C/c2ccc(O)c(OC)c2)ccc1O` [PINORESINOL-4'-O-[4',6'-O-(E)-DIFERULOYL]-BETA-D-GLUCOPYRANOSIDE], for which, in the assay with Tobacco mosaic virus [1], 200 µg/mL produced 50.3% inhibition. For the same compound, the EC50 in the assay on Tobacco mosaic virus [2] came out at 190 µg/mL (≈ 218 µM).
On to `COc1cc(/C=C/C(=O)OC[C@H]2O[C@@H](Oc3ccc([C@@H]4OC[C@@H]5[C@H]4CO[C@H]5c4ccc(O)c(OC)c4)cc3OC)[C@H](O)[C@@H](O)[C@@H]2O)ccc1O` [PINORESINOL-4'-O-[6'-O-(E)-FERULOYL]-BETA-D-GLUCOPYRANOSIDE], for which 200 µg/mL produced 34.3% inhibition with Tobacco mosaic virus [1].
Consider `COc1cc(/C=C/C(=O)OC[C@H]2O[C@@H](Oc3c(OC)cc([C@@H]4OC[C@@H]5[C@H]4CO[C@H]5c4cc(OC)c(O)c(OC)c4)cc3OC)[C@H](O)[C@@H](O)[C@@H]2OC(=O)/C=C/c2ccc(O)c(OC)c2)ccc1O` [SYRINGARESINOL-4'-O-[4',6'-O-(E)-DIFERULOYL]-BETA-D-GLUCOPYRANOSIDE], for which 200 µg/mL produced 56.1% inhibition in the assay on Tobacco mosaic virus [1]. In the assay with Tobacco mosaic virus [2], this compound returned an EC50 of 180 µg/mL (≈ 193 µM).

The values above are taken from ChEMBL document CHEMBL3044955, “Inhibitory activity against tobacco mosaic virus (TMV) replication of pinoresinol and syringaresinol lignans and their glycosides from the root of Rhus javanica var. roxburghiana” (J Agric Food Chem, 2007).
